pIC50: −log10 of the molar value.
Key:
GP IIb/IIIa = GP IIb/IIIa (Homo sapiens, UniProt P05106+P08514); test: GP IIb/IIIa antagonistic activity (method of Pharmacological Test 2 in WO 94/21599); assay type: binding
Protocol: GP IIb/IIIa antagonistic activity was measured for the compounds according to the present invention. The measurement of the GP IIb/IIIa antagonistic activity was carried out according to the method described in Pharmacological Test 2 in WO 94/21599. As a result, both the compounds prepared in Examples 3 and 6 had significant GP IIb/IIIa antagonistic activity. In particular, the IC50 value of the compound prepared in Example 3 was 2.0 nM.

[1] = biological target: T1, integrin αvβ3 (vitronectin receptor purified from the human placenta) (Homo sapiens, UniProt P05106+P06756); test: αvβ3 binding assay (vitronectin-vitronectin receptor binding assay); conditions: vitronectin binding to coated human placenta vitronectin receptor; read-out: integrin αvβ3 antagonistic activity (IC50)
T1 construct: a vitronectin receptor (protein content: 118 mg/ml) purified from the human placenta; from tissue; host or cells: human placenta
T1 sequence (P06756 31-889 limits assumed): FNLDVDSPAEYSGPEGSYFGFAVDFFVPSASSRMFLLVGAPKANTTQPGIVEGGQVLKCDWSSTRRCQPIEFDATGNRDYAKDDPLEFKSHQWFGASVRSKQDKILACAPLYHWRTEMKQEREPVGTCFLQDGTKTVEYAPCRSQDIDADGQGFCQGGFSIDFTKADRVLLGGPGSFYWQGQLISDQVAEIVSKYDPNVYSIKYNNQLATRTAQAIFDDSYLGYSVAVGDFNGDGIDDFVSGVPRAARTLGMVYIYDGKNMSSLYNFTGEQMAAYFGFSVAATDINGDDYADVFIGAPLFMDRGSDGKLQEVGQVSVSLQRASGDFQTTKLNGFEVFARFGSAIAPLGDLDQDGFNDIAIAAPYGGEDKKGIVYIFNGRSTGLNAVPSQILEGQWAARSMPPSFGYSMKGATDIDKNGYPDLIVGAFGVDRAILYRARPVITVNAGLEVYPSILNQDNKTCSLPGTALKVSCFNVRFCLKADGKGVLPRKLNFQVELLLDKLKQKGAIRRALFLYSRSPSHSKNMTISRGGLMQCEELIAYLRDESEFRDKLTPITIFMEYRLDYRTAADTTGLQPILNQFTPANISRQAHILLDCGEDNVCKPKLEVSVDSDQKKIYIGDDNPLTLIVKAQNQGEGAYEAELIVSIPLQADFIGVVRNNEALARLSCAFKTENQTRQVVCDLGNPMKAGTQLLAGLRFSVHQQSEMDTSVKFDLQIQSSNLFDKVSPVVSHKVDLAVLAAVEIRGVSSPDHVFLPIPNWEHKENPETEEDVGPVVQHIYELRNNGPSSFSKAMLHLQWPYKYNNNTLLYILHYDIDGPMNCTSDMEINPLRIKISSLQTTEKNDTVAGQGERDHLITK
T1 sequence (P06756 891-1048 partner limits assumed): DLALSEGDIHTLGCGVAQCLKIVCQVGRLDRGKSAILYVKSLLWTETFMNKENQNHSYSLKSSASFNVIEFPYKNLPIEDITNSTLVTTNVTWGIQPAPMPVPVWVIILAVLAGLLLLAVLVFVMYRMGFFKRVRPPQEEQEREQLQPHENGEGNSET
T1 sequence (P05106 27-788): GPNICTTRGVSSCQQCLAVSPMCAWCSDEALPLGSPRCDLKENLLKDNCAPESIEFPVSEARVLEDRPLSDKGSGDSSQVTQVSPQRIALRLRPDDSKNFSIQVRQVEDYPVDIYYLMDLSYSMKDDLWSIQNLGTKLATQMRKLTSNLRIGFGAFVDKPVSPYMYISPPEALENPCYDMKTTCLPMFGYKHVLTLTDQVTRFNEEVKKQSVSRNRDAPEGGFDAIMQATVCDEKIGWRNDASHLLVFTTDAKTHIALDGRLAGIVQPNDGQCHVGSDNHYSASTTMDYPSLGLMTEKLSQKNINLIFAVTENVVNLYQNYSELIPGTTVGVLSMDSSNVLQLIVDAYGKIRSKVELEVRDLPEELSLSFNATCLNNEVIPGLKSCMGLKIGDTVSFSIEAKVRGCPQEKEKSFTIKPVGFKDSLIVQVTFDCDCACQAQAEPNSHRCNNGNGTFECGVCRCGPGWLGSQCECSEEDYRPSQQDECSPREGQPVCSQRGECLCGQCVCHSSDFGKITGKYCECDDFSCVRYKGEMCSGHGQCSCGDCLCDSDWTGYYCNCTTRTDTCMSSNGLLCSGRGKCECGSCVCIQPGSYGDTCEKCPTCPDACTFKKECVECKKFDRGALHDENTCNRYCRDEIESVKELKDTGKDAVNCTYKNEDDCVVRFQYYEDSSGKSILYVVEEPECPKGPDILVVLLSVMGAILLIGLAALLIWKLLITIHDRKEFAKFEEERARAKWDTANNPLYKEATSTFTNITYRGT
Protocol: Integrin αvβ3 antagonistic activity was first measured in a vitronectin-vitronectin receptor binding assay system in accordance with the method of Kouns et al. (W. C. Kouns, D. Kirchhofer, P. Hadvary, A. Edenhofer, T. Weller, G. Pfenninger, H. R. Baumgartner, L. K. Jennings and B. Steiner, Blood, 80, 2539-2547 (1992)). […] A 0.1 M citric acid buffer (pH 4.3) containing 0.05% NaN3 was added in an amount of 50 μl/well to stop the reaction, followed by the measurement of the absorbance at 415 nm with a microplate reader (MTP 32, Corona Electric) (reference: 675 nm). The total binding was defined as the absorbance after a reaction using 50 μl of TBS-Tween instead of the test compound, and the non-specific binding (100% inhibition) was defined as the absorbance after a reaction using 50 μl of TBS-Tween containing 2×10^−3 M RGDS. The inhibition was calculated by the following equation: [formula]
IC50 was determined from a primary regression line of the logarithm of each concentration of the test compound and the logarithm of (100−inhibition)/inhibition.

[2] = system: human vascular smooth muscle cells; test: Inhibitory activity against adhesion of human vascular smooth muscle cells to vitronectin; assay type: cell-based
Protocol: The adhesion of human vascular smooth muscle cells to immobilized human vitronectin was measured in accordance with the method of Liaw et al. (Liaw L, Almeida M, Hart C E, Schwartz S M, and Giachelli C M, Circulation Research, 74 (2), 214-224 (1994)).
A Dulbecco's phosphate buffer (Dulbecco's PBS(−), Nissui Pharmaceutical Co., Ltd.) solution of human plasma-derived vitronectin (CALBIOCHEM) adjusted to a concentration of 4 μg/ml was first added to wells (50 μl/well) of a microplate (Maxisorp, Nunc), and a reaction for immobilization was allowed to proceed at 4° C. overnight. After washing twice with 150 μl of Dulbecco's phosphate buffer, a Dulbecco's phosphate buffer containing 10 mg/ml of bovine serum albumin (SIGMA) was added, followed by blocking at 37° C. for one hr. […]
Next, 50 μl of a Dulbecco's modified Eagle's basal medium containing 0.1% of bovine serum albumin with a medicament added thereto was added to the wells of the human vitronectin-coated assay microplate, followed by pre-cultivation under 5% carbon dioxide at 37° C. for 10 min. […] The absorbance of the microplate thus obtained was measured at 595 nm. […] The inhibition was calculated by the following equation. IC50 was determined from a primary regression line of the logarithm of each concentration of the test compound and the logarithm of (100−inhibition)/inhibition. […]

GP IIb/IIIa, sequence (P08514 32-887 limits assumed): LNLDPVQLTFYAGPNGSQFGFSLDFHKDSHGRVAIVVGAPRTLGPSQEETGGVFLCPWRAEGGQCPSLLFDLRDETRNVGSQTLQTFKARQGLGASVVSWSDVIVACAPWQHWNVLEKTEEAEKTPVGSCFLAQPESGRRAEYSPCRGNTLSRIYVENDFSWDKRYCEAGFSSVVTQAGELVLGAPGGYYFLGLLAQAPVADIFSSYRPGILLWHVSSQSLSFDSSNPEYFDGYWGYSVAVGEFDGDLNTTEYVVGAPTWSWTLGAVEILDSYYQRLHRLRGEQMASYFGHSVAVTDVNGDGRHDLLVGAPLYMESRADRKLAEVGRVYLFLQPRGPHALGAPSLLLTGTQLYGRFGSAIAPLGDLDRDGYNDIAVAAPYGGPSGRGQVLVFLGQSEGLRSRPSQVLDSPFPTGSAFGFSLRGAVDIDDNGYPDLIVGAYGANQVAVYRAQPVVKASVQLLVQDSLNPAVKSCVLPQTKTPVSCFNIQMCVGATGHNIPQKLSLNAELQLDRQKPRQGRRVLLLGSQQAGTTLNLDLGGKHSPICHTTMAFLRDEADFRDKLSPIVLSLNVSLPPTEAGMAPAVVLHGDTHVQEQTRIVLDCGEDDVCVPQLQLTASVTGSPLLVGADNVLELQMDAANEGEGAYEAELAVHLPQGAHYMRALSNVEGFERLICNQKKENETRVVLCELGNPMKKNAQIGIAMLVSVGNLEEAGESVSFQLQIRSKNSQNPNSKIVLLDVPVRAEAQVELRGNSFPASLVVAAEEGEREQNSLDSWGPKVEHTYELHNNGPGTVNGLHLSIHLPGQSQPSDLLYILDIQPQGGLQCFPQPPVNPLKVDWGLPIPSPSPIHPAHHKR
GP IIb/IIIa, sequence (P08514 891-1039 partner limits assumed): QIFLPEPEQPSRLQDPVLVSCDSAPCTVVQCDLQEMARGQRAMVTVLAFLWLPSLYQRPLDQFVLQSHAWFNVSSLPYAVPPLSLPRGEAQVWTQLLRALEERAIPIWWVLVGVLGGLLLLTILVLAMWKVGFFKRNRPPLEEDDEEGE
GP IIb/IIIa, sequence (P05106 27-788): as the sequence (P05106 27-788) above

## O=C(NC[C@H](NS(=O)(=O)c1ccccc1)C(=O)O)c1cccc(N2CCC(NC3=NCCCN3)CC2)c1 [Example 6, (2S)-Benzenesulfonylamino-3-[3-{4-(1,4,5,6-tetrahydropyrimidin-2-ylamino)piperidin-1-yl}benzoylamino]propionic acid]
GP IIb/IIIa; result in words
  GP IIb/IIIa antagonistic activity: significant

## O=C(NC[C@H](NS(=O)(=O)c1ccccc1)C(=O)O)c1cccc(N2CCN(C3=NCCCN3)CC2)c1 [Example 3, (2S)-Benzenesulfonylamino-3-[3-{4-(1,4,5,6-tetrahydropyrimidin-2-yl)piperazin-1-yl}benzoylamino]-propionic acid]
[1]
  pIC50: 8.89
GP IIb/IIIa
  pIC50: 8.70

## O=C(NC[C@H](NS(=O)(=O)c1ccccc1)C(=O)O)c1cc(N2CCC(NC3=NCCCN3)CC2)cc(C(F)(F)F)c1 [Example 27, (2S)-Benzenesulfonylamino-3-[3-{4-(1,4,5,6-tetrahydropyrimidin-2-ylamino)piperidin-1-yl}-5-(trifluoromethyl)benzoylamino]propionic acid]
[2]; immobilized human vitronectin
  pIC50: 7.02
[2]; result in words
  cell adhesion inhibitory activity: potent

## O=C(NC[C@H](NS(=O)(=O)c1ccccc1)C(=O)O)c1ccc(F)c(N2CCC(NC3=NCCCN3)CC2)c1 [Example 9, (2S)-Benzenesulfonylamino-3-[4-fluoro-3-{4-(1,4,5,6-tetrahydropyrimidin-2-ylamino)piperidin-1-yl}-benzoylamino]propionic acid]
[1]
  pIC50: 8.70

— patent US20050059669A1, “M-substituted benzoic acid derivatives having integrin alpha v beta 3 antagonistic activity” (priority 1999, published 2005)
